Reference: ChEMBL document CHEMBL5055679, “Discovery of a Novel Androgen Receptor Antagonist Manifesting Evidence to Disrupt the Dimerization of the Ligand-Binding Domain via Attenuating the Hydrogen-Bonding Network Between the Two Monomers” (J Med Chem, 2021)
Active and inactive are the calls of the source. The rule behind the calls is not given here.

Experiments:
[1] = target: T1, Androgen receptor (Homo sapiens) (UniProt P10275); assay: Antagonist activity at androgen receptor in human LNCaP cells assessed as reduction in DHT-induced secreted PSA level; format: cell-based; settings: filed as antagonist, dose 0.1-10 µM, time 48.0 hrs
T1 sequence (whole entry): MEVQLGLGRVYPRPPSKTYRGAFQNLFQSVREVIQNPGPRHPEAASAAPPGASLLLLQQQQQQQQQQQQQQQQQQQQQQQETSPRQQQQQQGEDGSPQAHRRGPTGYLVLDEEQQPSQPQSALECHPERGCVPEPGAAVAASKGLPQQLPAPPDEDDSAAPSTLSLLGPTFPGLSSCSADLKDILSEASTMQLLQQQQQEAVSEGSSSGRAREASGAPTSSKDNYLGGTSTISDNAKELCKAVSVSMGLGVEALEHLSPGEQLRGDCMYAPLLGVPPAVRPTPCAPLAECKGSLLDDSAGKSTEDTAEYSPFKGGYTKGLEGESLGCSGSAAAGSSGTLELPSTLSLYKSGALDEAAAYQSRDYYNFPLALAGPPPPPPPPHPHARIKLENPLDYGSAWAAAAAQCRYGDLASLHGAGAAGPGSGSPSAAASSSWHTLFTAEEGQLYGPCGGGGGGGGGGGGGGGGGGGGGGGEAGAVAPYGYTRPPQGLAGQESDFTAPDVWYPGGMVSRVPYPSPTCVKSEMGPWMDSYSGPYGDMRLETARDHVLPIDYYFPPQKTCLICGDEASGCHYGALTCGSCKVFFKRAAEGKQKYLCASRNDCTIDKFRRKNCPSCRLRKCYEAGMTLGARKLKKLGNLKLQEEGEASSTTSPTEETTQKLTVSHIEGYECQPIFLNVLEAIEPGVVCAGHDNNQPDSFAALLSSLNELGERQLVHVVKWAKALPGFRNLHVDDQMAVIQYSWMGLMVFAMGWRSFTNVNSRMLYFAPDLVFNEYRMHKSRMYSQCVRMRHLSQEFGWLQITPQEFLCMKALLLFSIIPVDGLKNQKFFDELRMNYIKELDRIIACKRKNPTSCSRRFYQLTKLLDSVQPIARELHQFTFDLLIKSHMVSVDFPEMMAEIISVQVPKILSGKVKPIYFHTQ

[2] = target: T1, Androgen receptor (Homo sapiens); assay: Antagonist activity at androgen receptor in human LNCaP cells assessed as reduction in DHT-induced AR protein expression at 0.1 to 10 uM after 48 hrs by Western blot analysis; format: cell-based; settings: dose 0.1-10 µM

Activity [1]: Dose-dependent effect
Activity [2]: inactive
Compound: O=c1cc(C(F)(F)F)c2ccc(OCc3ccc(Br)cc3)cc2o1
